Data published in patent publication US10414811B2, “Protease-resistant lipidated GLP-1 analogs” (MEDIMMUNE LIMITED, priority 2015, dated 2019).
pEC50: −log10 of the molar value. Read-outs that look alike come from different tables or passages of the source. Numbered stars: 1 amine (or outer) side, 2 acyl side, 3 side chain; on linkers, the order of the positions; unused ones are H or OH. Square brackets hold non-standard residues; d marks the D form. Side chains are listed from the residue outwards. Peptide text beside a SMILES is read from it. * marks the point of attachment. γGlu = O=C(O)[C@H](CCC(=O)[*:2])N[*:1]; Palmitoyl = CCCCCCCCCCCCCCCC(=O)*; αMeF = C[C@](N)(Cc1ccccc1)C(=O)O; αMeK = C[C@](N)(CCCCN)C(=O)O; Lauroyl = CCCCCCCCCCCC(=O)*; αMeS = C[C@](N)(CO)C(=O)O; AEEA = NCCOCCOCC(=O)O; Aib = CC(C)(N)C(=O)O

Legend:
Assay type in all cases: cell-based
[1] = biological target: T1, human GLP-1 receptor (GLP-1R) (Homo sapiens, UniProt P43220); test: cAMP assay, human GLP-1R cells; conditions: for EC50: mean of n1 and n2
T1 construct: expressed in transfected cells
T1 sequence (P43220 24-463): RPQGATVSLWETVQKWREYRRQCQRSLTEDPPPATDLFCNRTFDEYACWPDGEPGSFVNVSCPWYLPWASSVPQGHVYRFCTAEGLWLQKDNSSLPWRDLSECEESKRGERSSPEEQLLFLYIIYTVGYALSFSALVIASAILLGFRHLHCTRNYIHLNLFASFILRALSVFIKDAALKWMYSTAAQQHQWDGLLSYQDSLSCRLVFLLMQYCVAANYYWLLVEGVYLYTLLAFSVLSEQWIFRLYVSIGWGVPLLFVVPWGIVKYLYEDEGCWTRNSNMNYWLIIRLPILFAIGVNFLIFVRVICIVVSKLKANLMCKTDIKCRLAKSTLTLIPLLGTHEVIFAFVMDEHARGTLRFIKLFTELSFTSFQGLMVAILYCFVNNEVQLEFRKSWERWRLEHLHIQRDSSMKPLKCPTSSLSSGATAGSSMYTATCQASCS
How it was run: (§1)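 Peptide-stimulated cAMP measured by two-step HTRF after a 30 min room-temperature incubation with receptor-expressing cells (hGLP-1R, hGIPR at 1×10^5 cells/ml; hGCGR at 2×10^5 cells/ml). Duplicate dilutions; EC50 from 4-parameter logistic fit of % Delta F.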

[2] = biological target: T2, human glucagon receptor (GCGR) (Homo sapiens, UniProt P47871); test: cAMP assay, human GCGR cells
T2 construct: expressed in transfected cells
T2 sequence (P47871 26-477): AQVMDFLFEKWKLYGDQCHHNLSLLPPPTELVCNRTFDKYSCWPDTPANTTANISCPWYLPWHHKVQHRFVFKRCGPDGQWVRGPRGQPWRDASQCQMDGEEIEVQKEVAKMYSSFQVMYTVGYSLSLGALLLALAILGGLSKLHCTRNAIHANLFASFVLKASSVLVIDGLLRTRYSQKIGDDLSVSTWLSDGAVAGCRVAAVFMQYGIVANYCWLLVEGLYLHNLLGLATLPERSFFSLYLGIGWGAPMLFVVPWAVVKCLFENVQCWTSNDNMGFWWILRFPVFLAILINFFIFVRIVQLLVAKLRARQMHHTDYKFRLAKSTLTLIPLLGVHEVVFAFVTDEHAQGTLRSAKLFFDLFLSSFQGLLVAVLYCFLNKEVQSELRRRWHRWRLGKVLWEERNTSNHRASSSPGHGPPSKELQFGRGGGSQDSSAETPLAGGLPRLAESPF
How it was run: as §1

[3] = biological target: T3, human glucose-dependent insulinotropic peptide receptor (GIPR) (Homo sapiens, UniProt P48546); test: cAMP assay, human GIPR cells
T3 construct: expressed in transfected cells
T3 sequence (P48546 22-466): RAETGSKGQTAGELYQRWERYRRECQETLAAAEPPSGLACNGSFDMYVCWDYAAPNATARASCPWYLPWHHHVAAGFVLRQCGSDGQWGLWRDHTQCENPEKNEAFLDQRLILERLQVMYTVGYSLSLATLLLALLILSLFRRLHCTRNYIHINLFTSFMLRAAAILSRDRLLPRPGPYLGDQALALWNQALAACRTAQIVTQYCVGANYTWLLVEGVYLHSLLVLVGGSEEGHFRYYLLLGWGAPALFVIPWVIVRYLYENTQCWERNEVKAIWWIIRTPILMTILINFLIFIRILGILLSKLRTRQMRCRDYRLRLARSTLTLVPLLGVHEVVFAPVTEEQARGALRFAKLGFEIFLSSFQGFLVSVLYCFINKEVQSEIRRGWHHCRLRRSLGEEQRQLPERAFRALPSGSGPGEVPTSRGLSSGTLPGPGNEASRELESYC
How it was run: as §1

[4] = tris-lipidated peptides, read-out: Primary assay EC50 Mean pM GLP-1R
[5] = tris-lipidated peptides, replicate n1, read-out: Primary assay EC50 GLP-1R n1
[6] = tris-lipidated peptides, replicate n2, read-out: Primary assay EC50 GLP-1R n2
[7] = tris-lipidated peptides, first replicate, read-out: Primary assay EC50 Gluc-R (n1)
[8] = tris-lipidated peptides, second replicate, read-out: Primary assay EC50 GIP-R (n2)
[9] = cAMP assay, first determination (n1), read-out: Primary assay EC50 GLP-1R n1
[10] = cAMP assay, second determination (n2), read-out: Primary assay EC50 GLP-1R n2
[11] = cAMP assay, first determination (n1), read-out: Primary assay EC50 Gluc-R (n1)
[12] = cAMP assay, second determination (n2), read-out: Primary assay EC50 Gluc-R (n2)
[13] = cAMP assay, first determination (n1), read-out: Primary assay EC50 GIP-R (n1)
[14] = cAMP assay, second determination (n2), read-out: Primary assay EC50 GIP-R (n2)

SMILES	EC50 [1, 4]	pEC50 [1, 5]	pEC50 [1, 6]	pEC50 [2, 7]	pEC50 [3, 8]	pEC50 [1, 9]	pEC50 [1, 10]	EC50 ([1]; read-out: Mean pM GLP-1R)	pEC50 [2, 11]	pEC50 [2, 12]	pEC50 [3, 13]	pEC50 [3, 14]	pEC50 ([2]; tris-lipidated peptides, second replicate, read-out: Primary assay EC50 Gluc-R (n2))	pEC50 ([3]; tris-lipidated peptides, first replicate, read-out: Primary assay EC50 GIP-R (n1))
CCCCCCCCCCCC(=O)N[C@@H](CCC(=O)NCCOCCOCC(=O)NCCOCCOCC(=O)NCCCC[C@H](NC(=O)[C@H](CCC(=O)O)NC(=O)[C@H](CC(C)C)NC(=O)[C@H](CCCCNC(=O)COCCOCCNC(=O)COCCOCCNC(=O)CC[C@H](NC(=O)CCCCCCCCCCC)C(=O)O)NC(=O)[C@H](CO)NC(=O)[C@](C)(CO)NC(=O)[C@@H](NC(=O)[C@H](CC(=O)O)NC(=O)[C@H](CO)NC(=O)[C@@H](NC(=O)[C@](C)(Cc1ccccc1)NC(=O)[C@H](CO)NC(=O)CNC(=O)[C@H](CCC(=O)O)NC(=O)C(C)(C)NC(=O)[C@@H](N)Cc1c[nH]cn1)[C@@H](C)O)C(C)C)C(=O)N[C@@H](CCC(=O)O)C(=O)N[C@@H](C)C(=O)N[C@@H](C)C(=O)N[C@@](C)(CCCCN)C(=O)N[C@@H](CCC(=O)O)C(=O)N[C@@H](Cc1ccccc1)C(=O)N[C@H](C(=O)N[C@@H](C)C(=O)N[C@@H](Cc1ccccc1)C(=O)N[C@@H](CCCCNC(=O)COCCOCCNC(=O)COCCOCCNC(=O)CC[C@H](NC(=O)CCCCCCCCCCC)C(=O)O)C(=O)N[C@H](C(=O)N[C@@H](CCC(=O)O)C(=O)NCC(=O)NCC(N)=O)C(C)C)[C@@H](C)CC)C(=O)O [compound 479] (H-H[Aib]EGS[αMeF]TSDV[αMeS]SK([AEEA-AEEA-γGlu-Lauroyl])LEK([AEEA-AEEA-γGlu-Lauroyl])EAA[αMeK]EFIAFK([AEEA-AEEA-γGlu-Lauroyl])VEGG-NH2)	186 pM	9.88	9.62	7.70	7.70	–	–	–	–	–	–	–	–	–
CCCCCCCCCCCCCCCC(=O)N[C@@H](CCC(=O)NCCCC[C@H](NC(=O)CNC(=O)CNC(=O)[C@H](CCCCN)NC(=O)[C@@H](NC(=O)[C@@H](NC(=O)[C@](C)(Cc1ccccc1)NC(=O)[C@H](C)NC(=O)[C@@H](NC(=O)[C@](C)(Cc1ccccc1)NC(=O)[C@H](CCC(=O)O)NC(=O)[C@H](CCCCN)NC(=O)[C@H](C)NC(=O)[C@H](C)NC(=O)[C@H](CCC(=O)O)NC(=O)CNC(=O)[C@H](CCC(=O)O)NC(=O)[C@H](CC(C)C)NC(=O)[C@](C)(Cc1ccccc1)NC(=O)[C@H](CO)NC(=O)[C@H](CO)NC(=O)[C@@H](NC(=O)[C@H](CC(=O)O)NC(=O)[C@H](CO)NC(=O)[C@@H](NC(=O)[C@](C)(Cc1ccccc1)NC(=O)[C@H](CO)NC(=O)CNC(=O)[C@H](CCC(=O)O)NC(=O)C(C)(C)NC(=O)[C@@H](N)Cc1c[nH]cn1)[C@@H](C)O)C(C)C)[C@@H](C)CC)C(C)C)C(C)C)C(N)=O)C(=O)O [compound 39] (H-H[Aib]EGS[αMeF]TSDVSS[αMeF]LEGEAAKE[αMeF]IA[αMeF]VVKGGK([γGlu-Palmitoyl])-NH2; N-terminus assumed)	–	–	–	–	–	10.48	10.48	33 pM	≤ 7.57	≤ 7.57	≤ 7.57	≤ 7.57	–	–
CCCCCCCCCCCC(=O)N[C@@H](CCC(=O)NCCOCCOCC(=O)NCCOCCOCC(=O)NCCCC[C@H](NC(=O)[C@H](Cc1ccc(O)cc1)NC(=O)[C@H](CO)NC(=O)[C@](C)(CO)NC(=O)[C@@H](NC(=O)[C@H](CC(=O)O)NC(=O)[C@H](CO)NC(=O)[C@@H](NC(=O)[C@](C)(Cc1ccccc1)NC(=O)[C@H](CO)NC(=O)CNC(=O)[C@H](CCC(=O)O)NC(=O)C(C)(C)NC(=O)[C@@H](N)Cc1c[nH]cn1)[C@@H](C)O)C(C)C)C(=O)N[C@@H](CCC(=O)O)C(=O)NCC(=O)N[C@@H](CCC(=O)O)C(=O)N[C@@H](C)C(=O)N[C@@H](C)C(=O)N[C@@](C)(CCCCN)C(=O)N[C@@H](CCCCNC(=O)COCCOCCNC(=O)COCCOCCNC(=O)CC[C@H](NC(=O)CCCCCCCCCCC)C(=O)O)C(=O)N[C@@H](Cc1ccccc1)C(=O)N[C@H](C(=O)N[C@@H](C)C(=O)N[C@@H](Cc1ccccc1)C(=O)N[C@@H](CCCCNC(=O)COCCOCCNC(=O)COCCOCCNC(=O)CC[C@H](NC(=O)CCCCCCCCCCC)C(=O)O)C(=O)N[C@H](C(=O)N[C@@H](CCC(=O)O)C(=O)NCC(=O)NCC(N)=O)C(C)C)[C@@H](C)CC)C(=O)O [compound 486] (H-H[Aib]EGS[αMeF]TSDV[αMeS]SYK([AEEA-AEEA-γGlu-Lauroyl])EGEAA[αMeK]K([AEEA-AEEA-γGlu-Lauroyl])FIAFK([AEEA-AEEA-γGlu-Lauroyl])VEGG-NH2; N-terminus assumed)	212 pM	9.78	9.59	–	7.70	–	–	–	–	–	–	–	7.70	–
CC[C@H](C)[C@H](NC(=O)[C@](C)(Cc1ccccc1)NC(=O)[C@H](CCC(=O)O)NC(=O)[C@](C)(CCCCN)NC(=O)[C@H](C)NC(=O)[C@H](C)NC(=O)[C@H](CCC(=O)O)NC(=O)CNC(=O)[C@H](CCC(=O)O)NC(=O)[C@H](CC(C)C)NC(=O)[C@](C)(Cc1ccccc1)NC(=O)[C@H](CO)NC(=O)[C@](C)(CO)NC(=O)[C@@H](NC(=O)[C@H](CC(=O)O)NC(=O)[C@H](C)NC(=O)[C@@H](NC(=O)[C@](C)(Cc1ccccc1)NC(=O)[C@H](CO)NC(=O)CNC(=O)[C@H](CCC(=O)O)NC(=O)C(C)(C)NC(=O)[C@@H](N)Cc1c[nH]cn1)[C@@H](C)O)C(C)C)C(=O)N[C@@H](C)C(=O)N[C@@](C)(Cc1ccccc1)C(=O)N[C@H](C(=O)N[C@H](C(=O)N[C@@](C)(CCCCN)C(=O)NCC(=O)NCC(N)=O)C(C)C)C(C)C [compound 26] (H-H[Aib]EGS[αMeF]TADV[αMeS]S[αMeF]LEGEAA[αMeK]E[αMeF]IA[αMeF]VV[αMeK]GG-NH2)	–	–	–	–	–	10.00	9.82	123 pM	≤ 7.00	7.52	≤ 7.00	≤ 7.00	–	–
CCCCCCCCCCCCCCCC(=O)N[C@@H](CCC(=O)NCCCC[C@H](NC(=O)[C@H](C)NC(=O)[C@H](CCC(=O)O)NC(=O)CNC(=O)[C@H](CCC(=O)O)NC(=O)[C@H](CC(C)C)NC(=O)[C@](C)(Cc1ccccc1)NC(=O)[C@H](CO)NC(=O)[C@](C)(CO)NC(=O)[C@@H](NC(=O)[C@H](CC(=O)O)NC(=O)[C@H](CO)NC(=O)[C@@H](NC(=O)[C@](C)(Cc1ccccc1)NC(=O)[C@H](CO)NC(=O)CNC(=O)[C@H](CCC(=O)O)NC(=O)C(C)(C)NC(=O)[C@@H](N)Cc1c[nH]cn1)[C@@H](C)O)C(C)C)C(=O)N[C@@](C)(CCCCN)C(=O)N[C@@H](CCC(=O)O)C(=O)N[C@@](C)(Cc1ccccc1)C(=O)N[C@H](C(=O)N[C@@H](C)C(=O)N[C@@](C)(Cc1ccccc1)C(=O)N[C@H](C(=O)N[C@H](C(=O)N[C@@](C)(CCCCN)C(=O)NCC(=O)NCC(N)=O)C(C)C)C(C)C)[C@@H](C)CC)C(=O)O [compound 81] (H-H[Aib]EGS[αMeF]TSDV[αMeS]S[αMeF]LEGEAK([γGlu-Palmitoyl])[αMeK]E[αMeF]IA[αMeF]VV[αMeK]GG-NH2; N-terminus assumed)	–	–	–	–	–	9.43	9.70	283 pM	≤ 7.57	≤ 7.57	≤ 7.57	≤ 7.57	–	–
CCCCCCCCCCCC(=O)N[C@@H](CCC(=O)NCCOCCOCC(=O)NCCOCCOCC(=O)NCCCC[C@H](NC(=O)[C@H](CCC(=O)O)NC(=O)CNC(=O)[C@H](CCC(=O)O)NC(=O)[C@H](CCCCNC(=O)COCCOCCNC(=O)COCCOCCNC(=O)CC[C@H](NC(=O)CCCCCCCCCCC)C(=O)O)NC(=O)[C@H](Cc1ccc(O)cc1)NC(=O)[C@H](CO)NC(=O)[C@](C)(CO)NC(=O)[C@@H](NC(=O)[C@H](CC(=O)O)NC(=O)[C@H](CO)NC(=O)[C@@H](NC(=O)[C@](C)(Cc1ccccc1)NC(=O)[C@H](CO)NC(=O)CNC(=O)[C@H](CCC(=O)O)NC(=O)C(C)(C)NC(=O)[C@@H](N)Cc1c[nH]cn1)[C@@H](C)O)C(C)C)C(=O)N[C@@H](C)C(=O)N[C@@](C)(CCCCN)C(=O)N[C@@H](CCC(=O)O)C(=O)N[C@@H](Cc1ccccc1)C(=O)N[C@H](C(=O)N[C@@H](C)C(=O)N[C@@H](Cc1ccccc1)C(=O)N[C@@H](CCCCNC(=O)COCCOCCNC(=O)COCCOCCNC(=O)CC[C@H](NC(=O)CCCCCCCCCCC)C(=O)O)C(=O)N[C@H](C(=O)N[C@@H](CCC(=O)O)C(=O)NCC(=O)NCC(N)=O)C(C)C)[C@@H](C)CC)C(=O)O [compound 485] (H-H[Aib]EGS[αMeF]TSDV[αMeS]SYK([AEEA-AEEA-γGlu-Lauroyl])EGEK([AEEA-AEEA-γGlu-Lauroyl])A[αMeK]EFIAFK([AEEA-AEEA-γGlu-Lauroyl])VEGG-NH2)	195 pM	9.78	9.65	7.71	–	–	–	–	–	–	–	–	–	7.71
